We go through 22 molecules from patent publication US20230113037A1 (Bayer Aktiengesellschaft, priority 2019, published 2023).

The target of test [1] is T1, AHR (Homo sapiens, UniProt P35869).
T1 construct: U87 MG glioblastoma cells (ATCC #HTB-14) endogenously expressing AHR; endogenous in cells; host or cells: U87 MG glioblastoma cells (ATCC #HTB-14)
T1 sequence (P35869 11-848): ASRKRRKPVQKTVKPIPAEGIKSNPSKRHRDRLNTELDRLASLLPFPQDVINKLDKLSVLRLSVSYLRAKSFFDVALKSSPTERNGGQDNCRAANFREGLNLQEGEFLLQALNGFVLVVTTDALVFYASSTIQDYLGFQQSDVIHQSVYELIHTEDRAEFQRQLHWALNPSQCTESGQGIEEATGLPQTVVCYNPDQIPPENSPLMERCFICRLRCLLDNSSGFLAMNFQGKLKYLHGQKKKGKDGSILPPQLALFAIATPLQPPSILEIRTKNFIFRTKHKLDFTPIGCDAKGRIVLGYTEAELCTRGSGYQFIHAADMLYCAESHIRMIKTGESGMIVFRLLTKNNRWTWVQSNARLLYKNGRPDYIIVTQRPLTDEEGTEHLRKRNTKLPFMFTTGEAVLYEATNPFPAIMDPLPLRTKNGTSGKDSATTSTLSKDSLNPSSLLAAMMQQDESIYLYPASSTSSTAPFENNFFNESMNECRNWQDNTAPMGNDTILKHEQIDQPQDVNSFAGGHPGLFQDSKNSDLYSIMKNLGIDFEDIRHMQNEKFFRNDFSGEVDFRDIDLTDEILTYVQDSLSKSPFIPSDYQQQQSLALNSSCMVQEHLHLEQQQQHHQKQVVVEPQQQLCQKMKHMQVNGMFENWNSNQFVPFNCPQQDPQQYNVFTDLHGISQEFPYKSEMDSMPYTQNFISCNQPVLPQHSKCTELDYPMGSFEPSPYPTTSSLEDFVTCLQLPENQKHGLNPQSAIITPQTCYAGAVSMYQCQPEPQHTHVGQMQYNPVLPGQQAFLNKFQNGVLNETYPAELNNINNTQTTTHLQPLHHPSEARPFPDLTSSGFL
Description: In vitro assay 1: antagonism in human cell line (AHR transactivation, firefly luciferase reporter, kynurenic acid prestimulated). The test is classed as cell-based. The following applies: AHR Antagonism Human IC50 [M]. In outline:
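Antagonism measured as loss of kynurenic acid-driven firefly luciferase from DRE reporter in stably transfected U87 MG cells; constitutive Renilla signal monitors cytotoxicity. Positive/negative control normalization, staurosporine 5 μM with 150 μM kynurenic acid as inhibition control; replicates given as mean or median.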

For test [2], the target named is T2, AHR (Mus musculus, UniProt P30561).
T2 sequence (P30561 1-848 P471L/N533S/M589L): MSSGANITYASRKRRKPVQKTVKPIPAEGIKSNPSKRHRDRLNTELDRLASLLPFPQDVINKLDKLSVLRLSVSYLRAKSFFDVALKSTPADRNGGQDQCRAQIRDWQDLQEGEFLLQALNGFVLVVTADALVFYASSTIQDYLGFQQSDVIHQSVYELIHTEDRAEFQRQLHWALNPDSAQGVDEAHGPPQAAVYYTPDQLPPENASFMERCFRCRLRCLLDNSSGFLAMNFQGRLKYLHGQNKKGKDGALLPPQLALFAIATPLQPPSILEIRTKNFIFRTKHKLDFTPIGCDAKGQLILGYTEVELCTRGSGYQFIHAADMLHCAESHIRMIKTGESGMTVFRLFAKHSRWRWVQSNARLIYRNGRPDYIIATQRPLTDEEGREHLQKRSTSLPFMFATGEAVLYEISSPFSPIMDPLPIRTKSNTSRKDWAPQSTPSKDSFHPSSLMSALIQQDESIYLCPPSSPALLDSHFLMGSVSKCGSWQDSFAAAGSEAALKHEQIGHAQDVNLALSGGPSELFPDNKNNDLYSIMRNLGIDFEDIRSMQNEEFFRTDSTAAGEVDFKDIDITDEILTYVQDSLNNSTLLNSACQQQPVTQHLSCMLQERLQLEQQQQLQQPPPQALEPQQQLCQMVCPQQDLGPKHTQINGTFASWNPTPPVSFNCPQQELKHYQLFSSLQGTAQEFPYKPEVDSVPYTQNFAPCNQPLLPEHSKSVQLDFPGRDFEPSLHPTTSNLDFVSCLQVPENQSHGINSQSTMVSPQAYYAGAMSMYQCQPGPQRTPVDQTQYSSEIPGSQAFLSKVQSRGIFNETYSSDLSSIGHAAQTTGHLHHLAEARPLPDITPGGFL
Description: In vitro assay 3: antagonism in mouse cell line (AHR transactivation, firefly luciferase reporter, kynurenic acid prestimulated). Format: cell-based. In outline:
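Luminescence from an AHR-dependent DRE-luciferase reporter, stably integrated in mouse cells, quantifies blockade of kynurenic acid-driven activation. Unstimulated cells mark maximal inhibition; normalization uses both control types, and multiply tested compounds carry mean or median values.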

Setting [3] is: mouse Hepa 1c1c7 cells, 200 μM kynurenic acid, 20 hours, read-out: AHR Antagonism Mouse IC50.

Where two headings read alike, the source gives them in different places.

For orientation: IC50 means the concentration needed to halve the response being measured. For the molecule `Cn1cc(-c2nc3c4c(C(F)(F)F)cccc4nc(N[C@@H]4CCCCNC4=O)n3n2)cn1` [Example 173, (3R)-3-{[2-(1-methyl-1H-pyrazol-4-yl)-10-(trifluoromethyl)[1,2,4]triazolo[1,5-c]quinazolin-5-yl]amino}azepan-2-one], the IC50 against AHR [1] worked out at 7.21e-08 M; on AHR [2] (setting [3]) it was 112 nM.

For `O=C1NCCCC[C@H]1Nc1nc2cccc(C(F)(F)F)c2c2nc(-c3ccc(F)cc3)nn12` [Example 174, (3R)-3-{[2-(4-fluorophenyl)-10-(trifluoromethyl)[1,2,4]triazolo[1,5-c]quinazolin-5-yl]amino}azepan-2-one], the IC50 against AHR [1] worked out at 2.26e-08 M; at AHR [2] (setting [3]), 4.04 nM.

On to `O=C1NCCCC[C@H]1Nc1nc2cccc(C3CC3)c2c2nc(-c3cccc(F)c3)nn12` [Example 175, (3R)-3-{[10-cyclopropyl-2-(3-fluorophenyl)[1,2,4]triazolo[1,5-c]quinazolin-5-yl]amino}azepan-2-one], for which the IC50 against AHR [1] came to 3.24e-08 M; at AHR [2] (setting [3]), 22.3 nM.

Regarding `COc1ccc(-c2nc3c4c(C5CC5)cccc4nc(N[C@@H]4CCCCNC4=O)n3n2)cc1` [Example 176, (3R)-3-{[10-cyclopropyl-2-(4-methoxyphenyl)[1,2,4]triazolo[1,5-c]quinazolin-5-yl]amino}azepan-2-one], the IC50 on AHR [1] is 6.81e-09 M; on AHR [2] (setting [3]), 6.55 nM.

Turning to `COc1cccc(-c2nc3c4c(C)cccc4nc(N[C@@H]4CCCCNC4=O)n3n2)c1` [Example 178, (3R)-3-{[2-(3-methoxyphenyl)-10-methyl[1,2,4]triazolo[1,5-c]quinazolin-5-yl]amino}azepan-2-one], the IC50 was 3.98e-09 M at AHR [1] and 2.34 nM on AHR [2] (setting [3]).

For the molecule `COc1cccc(-c2nc3c4c(C)cccc4nc(NC4CCNC4=O)n3n2)c1` (centres unmarked) [Example 179, 3-{[2-(3-methoxyphenyl)-10-methyl[1,2,4]triazolo[1,5-c]quinazolin-5-yl]amino}pyrrolidin-2-one], the IC50 was found to be 1.01e-07 M against AHR [1] and 246 nM on AHR [2] (read-out: AHR Antagonism Mouse IC50, mouse Hepa 1c1c7 cells, 200 μM kynurenic acid, 20 hours).

For `COc1cccc(-c2nc3c4c(C)cccc4nc(NC4CCCNC4=O)n3n2)c1` (centres unmarked) [Example 180, 3-{[2-(3-methoxyphenyl)-10-methyl[1,2,4]triazolo[1,5-c]quinazolin-5-yl]amino}piperidin-2-one], the results for the IC50 against AHR [1] and at AHR [2] (setting [3]) were 1.27e-07 M and 253 nM, respectively.

`COc1cccc(-c2nc3c4c(C)cccc4nc(N[C@H]4CCCCNC4=O)n3n2)c1` [Example 181, (3S)-3-{[2-(3-methoxyphenyl)-10-methyl[1,2,4]triazolo[1,5-c]quinazolin-5-yl]amino}azepan-2-one]: the IC50 on AHR [1] is 3.37e-07 M; at AHR [2] (setting [3]), 25.7 nM.

As for `COc1cccc(-c2nc3c4c(C)cccc4nc(N[C@H]4CCCNC4=O)n3n2)c1` [Example 182, (3S)-3-{[2-(3-methoxyphenyl)-10-methyl[1,2,4]triazolo[1,5-c]quinazolin-5-yl]amino}piperidin-2-one], the IC50 came to 2.54e-07 M against AHR [1] and 1020 nM on AHR [2] (setting [3]).

Take `Cc1cccc2nc(N[C@@H]3CCCCNC3=O)n3nc(-c4cnn(C)c4)nc3c12` [Example 183, (3R)-3-{[10-methyl-2-(1-methyl-1H-pyrazol-4-yl)[1,2,4]triazolo[1,5-c]quinazolin-5-yl]amino}azepan-2-one]: the results for the IC50 against AHR [1] and on AHR [2] (setting [3]) were 2.48e-08 M and 453 nM, respectively.

Consider `COc1cccc(-c2nc3c4c(F)cccc4nc(N[C@H](C)C(N)=O)n3n2)c1` [Example 184, N^2-[10-fluoro-2-(3-methoxyphenyl)[1,2,4]triazolo[1,5-c]quinazolin-5-yl]-D-alaninamide], for which the results for the IC50 against AHR [1] and on AHR [2] (setting [3]) were 9.66e-09 M and 62.8 nM, respectively.

As to `COc1cccc(-c2nc3c4c(F)cccc4nc(N[C@@H]4CCCCNC4=O)n3n2)c1` [Example 185], the IC50 amounted to 1.05e-08 M against AHR [1] and 9.84 nM at AHR [2] (setting [3]).

Take `O=C1NCCCC[C@H]1Nc1nc2c(Cl)cccc2c2nc(-c3ccncc3)nn12` [Example 193, (3R)-3-{[7-Chloro-2-(pyridin-4-yl)[1,2,4]triazolo[1,5-c]quinazolin-5-yl]amino}azepan-2-one]: the figures for the IC50 against AHR [1] and on AHR [2] (setting [3]) were 2.05e-08 M and 87.2 nM, respectively.

In the case of `Cn1cc(-c2nc3c4cccc(Cl)c4nc(N[C@@H]4CCCCNC4=O)n3n2)cn1` [Example 194, (3R)-3-{[7-Chloro-2-(1-methyl-1H-pyrazol-4-yl)[1,2,4]triazolo[1,5-c]quinazolin-5-yl]amino}azepan-2-one], the IC50 against AHR [1] was 1.17e-09 M; at AHR [2] (setting [3]) it was 3.83 nM.

For the molecule `CC(C)n1cc(-c2nc3c4ccccc4nc(N[C@@H]4CCCCNC4=O)n3n2)cn1` [Example 195, (3R)-3-({2-[1-(propan-2-yl)-1H-pyrazol-4-yl][1,2,4]triazolo[1,5-c]quinazolin-5-yl]amino)azepan-2-one], the IC50 came out at 3.06e-09 M against AHR [1] and 2.55 nM at AHR [2] (setting [3]).

`O=C1NCCCC[C@H]1Nc1nc2ccccc2c2nc(-c3cccc(Cl)c3Cl)nn12` [Example 196, (3R)-3-{[2-(2,3-dichlorophenyl)[1,2,4]triazolo[1,5-c]quinazolin-5-yl]amino}azepan-2-one]: the IC50 against AHR [1] was 4.09e-09 M; at AHR [2] (setting [3]) it was 1.11 nM.

For `O=C1NCCCC[C@H]1Nc1nc2ccccc2c2nc(-c3cc(F)ccc3F)nn12` [Example 197, (3R)-3-{[2-(2,5-difluorophenyl)[1,2,4]triazolo[1,5-c]quinazolin-5-yl]amino}azepan-2-one], the IC50 on AHR [1] was found to be 4.23e-09 M; on AHR [2] (setting [3]) it was 1.82 nM.

Consider `Cc1nnc(-c2nc3c4ccccc4nc(N[C@@H]4CCCCNC4=O)n3n2)o1` [Example 199, (3R)-3-{[2-(5-methyl-1,3,4-oxadiazol-2-yl)[1,2,4]triazolo[1,5-c]quinazolin-5-yl]amino}azepan-2-one], for which the IC50 at AHR [1] was 5.37e-07 M; on AHR [2] (setting [3]), 114 nM.

Regarding `O=C1NCCCC[C@H]1Nc1nc2ccccc2c2nc(-c3ccc(Br)cc3Cl)nn12` [Example 200, (3R)-3-{[2-(4-bromo-2-chlorophenyl)[1,2,4]triazolo[1,5-c]quinazolin-5-yl]amino}azepan-2-one], the IC50 against AHR [1] was 2.87e-09 M; at AHR [2] (setting [3]) it was > 20000 nM.

As to `CSc1ccc(-c2nc3c4ccccc4nc(N[C@@H]4CCCCNC4=O)n3n2)cc1` [Example 202, (3R)-3-({2-[4-(methylsulfanyl)phenyl][1,2,4]triazolo[1,5-c]quinazolin-5-yl}amino)azepan-2-one], the figures for the IC50 against AHR [1] and at AHR [2] (setting [3]) were 5.17e-10 M and 0.657 nM, respectively.

For the molecule `O=C1NCCCC[C@H]1Nc1nc2c(C(F)(F)F)cccc2c2nc(-c3ccc(F)cc3)nn12` [Example 203, (3R)-3-{[2-(4-fluorophenyl)-7-(trifluoromethyl)[1,2,4]triazolo[1,5-c]quinazolin-5-yl]amino}azepan-2-one], the IC50 against AHR [1] came out at 6.29e-10 M; at AHR [2] (setting [3]), 0.48 nM.

Regarding `COc1ccc(-c2nc3c4cccc(C(F)(F)F)c4nc(N[C@@H]4CCCCNC4=O)n3n2)cc1` [Example 204, (3R)-3-{[2-(4-methoxyphenyl)-7-(trifluoromethyl)[1,2,4]triazolo[1,5-c]quinazolin-5-yl]amino}azepan-2-one], the values for the IC50 against AHR [1] and on AHR [2] (setting [3]) were 1.15e-09 M and 1.02 nM, respectively.
